Results on one compound are retold here after patent US20250228862A1, “METHODS OF USING ATR INHIBITORS” (Repare Therapeutics Inc., priority 2022, published 2025).

The structures appear in SMILES notation.

The test system of assay [1] is ARID1A wild-type (WT) and knockout (ARID1A−/−) BEAS2B cells. Description: IncuCyte growth (confluency), isogenic ARID1A WT and -/- BEAS2B. The class given is cell-based, human. The note with it: BEAS2B ARID1A−/− vs WT. As for the experimental part: FIG. 11C: Dose-response curves of isogenic ARID1A wild-type (WT) and knockout (ARID1A−/−) BEAS2B cells treated with AZD-6738. Cell growth (confluency) was measured by IncuCyte automated microscopy. Data (circles) were fitted to a four-parameter dose-response model (solid lines).
(§1) In addition to the genes disclosed herein, we investigated ATRi sensitivity to the loss of ARID1A, which was previously described in Williamson et al., Nat. Comms., 7:13837, 2016, as a bona fide biomarker of ATRi sensitivity. Three isogenic ARID1A wild-type (WT) and ARID1A-deficient (ARID1A−/−) human cell line pairs were employed: HCT116, MCF10A and BEAS2B. […] To strengthen this observation, we assembled a panel of tissue-matched cancer cell lines that were either ARID1A WT or carried deleterious ARID1A alterations (LOF) and measured their sensitivity to AZD-6738. […] In aggregate, we believe that the genes named in this Application present a list of bona fide determinants of ATRi sensitivity as opposed to certain 5 biomarkers described in the scientific literature.

For assay [2], the system named is cancer cell lines either wild-type for ARID1A (WT) or carrying deleterious ARID1A alterations (LOF). Description: IncuCyte growth assays in ARID1A WT and LOF cancer cell line panel. To be noted: tissue-matched cancer cell line panel. The class given is cell-based.
Excerpt: FIG. 12: EC50 values for the ATRI AZD-6738 from IncuCyte growth assays in a panel of cancer cell lines either wild-type for ARID1A (WT) or carrying deleterious ARID1A alterations (LOF). Data (circles) from two independent experiments with mean (bars)±SD (error bars).
as §1

The subject of assay [3] is ARID1A wild-type (WT) and knockout (ARID1A−/−) MCF1A cells. The assay is described as follows: IncuCyte growth (confluency), isogenic ARID1A WT and -/- MCF10A. The class given is cell-based, human. The note with it: MCF10A ARID1A−/− vs WT. The method, then: FIG. 11B: Dose-response curves of isogenic ARID1A wild-type (WT) and knockout (ARID1A−/−) MCF1A cells treated with AZD-6738. Cell growth (confluency) was measured by IncuCyte automated microscopy. Data (circles) were fitted to a four-parameter dose-response model (solid lines).
as §1

The test system of assay [4] is ARID1A wild-type (WT) and knockout (ARID1A−/−) HCT116 cells. Description: IncuCyte growth (confluency), isogenic ARID1A WT and -/- HCT116. The class given is cell-based, human. The note with it: HCT116 ARID1A−/− vs WT. The method, then:
FIG. 11A: Dose-response curves of isogenic ARID1A wild-type (WT) and knockout (ARID1A−/−) HCT116 cells treated with AZD-6738. Cell growth (confluency) was measured by IncuCyte automated microscopy. Data (circles) were fitted to a four-parameter dose-response model (solid lines).
as §1

Regarding `C[C@@H]1COCCN1c1cc(C2([S@](C)(=N)=O)CC2)nc(-c2cc[nH]c3nccc2-3)n1` [AZD-6738], the “Sensitivity upon ARID1A deficiency” value in assay [1], in assay [3] and in assay [4] was “did not lead to sensitivity” throughout. In addition, the “Sensitivity (EC50) of ARID1A LOF vs ARID1A WT cell lines” value in assay [2] is reported as “no significant trend towards higher ATRi sensitivity in ARID1A LOF cell lines”.
